Data reported in patent US6794376B2, “Methods and compositions for enhancing diffusion of therapeutic agents through tissue” (William Beaumont Hospital, priority 2000, dated 2004).

Legend:
[1] = tested on: Spheroids made from MCF-7 human breast carcinoma cells; assay: Doxorubicin penetration and morphology in MCF-7 spheroids treated with permeabilizer, with or without hyperthermia; format: cell-based
Procedure: Spheroids made from MCF-7 human breast carcinoma cells were treated with 3.0 micrograms per milliliter doxorubicin for six hours at various temperatures and under various permeabilizer conditions. Doxorubicin is an anti-neoplastic drug frequently used in chemotherapy procedures. When the spheroids were treated for six hours at 37.0° C. in the absence of permeabilizer, the drug penetrated only six cell layers into the spheroids. […] The spheroids in this experiment also underwent a characteristic change in morphology. […] These changes in spheroid morphology and drug penetration were never observed in control spheroids that received no permeabilizer treatment. Furthermore, these changes were never observed in spheroids that received sham treatment, which included exposure to all components used in the permeabilizer emulsion except the permeabilizer.
In this example, spheroids were treated as in example 1 with the addition of hyperthermia as an additional variable in the experiment. Hyperthermia in this example involved raising the temperature of the spheroids to approximately 40° C. […] Hyperthermia treatment alone had no effect on penetration of doxorubicin or upon the intercellular space.

[2] = tested on: spheroids made from DU-145 human prostate carcinoma cells; assay: Adenovirus vector (beta-galactosidase reporter) penetration into DU-145 spheroids treated with permeabilizer, with or without hyperthermia; format: cell-based
Procedure: The spheroids made from DU-145 human prostate carcinoma cells were grown to an average diameter of 500 micrometers and then suspended in culture medium containing 0.1% to 3% cyclopentadecanolide plus adenovirus vectors that had beta-galactosidase as a reporter transgene. Once a viral vector entered a cell, beta-galactosidase was expressed constitutively under control of the human CMV promoter. The experimental protocol called for the spheroids to be incubated for 48 to 72 hours following treatment to permit transgene expression. It should be noted that a reporter gene was utilized in this Example, as well as in Examples 4 and 5, only to facilitate determination of the extent of vector diffusion. Any other polynucleotide could be used in this system, including suicide genes and genes encoding therapeutic proteins.
Within 6 to 24 hours following permeabilizer treatment, depending upon the permeabilizer concentration used, the cells within the spheroid regions where the intercellular space was increased became detached from the spheroid.

[3] = Highest permeabilizer concentration that gives a stable emulsion; format: physicochemical
Procedure: As indicated above, prior to delivery to the tissue of interest, a working emulsion of the permeabilizer is prepared, preferably from one of the stocks. The working emulsion preferably comprises one or more permeabilizers in a buffer. The concentration of the permeabilizer will depend on the permeabilizer used in the procedure being conducted. Because ethylene brassylate and civetone are liquids, they can be administered to a tissue at concentrations up to 100%. Preferably, the working emulsion contains ethylene brassylate, civetone, or a combination of both at a concentration of between approximately 0.1 and 20% (volume/volume). As indicated above, Cyclopentadecanone and cyclopentadecanolide, however, are solids. The highest concentration of cyclopentadecanone or cyclopentadecanolide that can be made into a stable emulsion is approximately 25% (weight/volume). As a result, the working emulsion preferably contains cyclopentadecanone or cyclopentadecanolide at a concentration of between approximately 0.1 and 25%. Particularly preferred is a working solution that contains cyclopentadecanone, cyclopentadecanolide, or a combination of both, at a concentration of between approximately 0.1 and 7%.

[4] = tested on: Du-145 tumors grafted onto mice; assay: Adenovirus vector diffusion (X-gal staining) in Du-145 xenograft tumors injected with permeabilizer, with or without hyperthermia; format: in vivo; conditions: single injection of 30 microliters, tumor retrieved at 72 hours
Procedure: Du-145 tumors grafted onto mice were injected with cyclopentadecanolide and adenovirus vector that contained the beta-galactosidase transgene, all in PBS. The tumor was retrieved 72 hours after treatment, cryosectioned, and stained with X-gal to visualize beta-galactosidase expression.
In this example, tumors were heated to 41.0° C. using an unfocused ultrasonic transducer prior to treatment with permeabilizer and virus vector. When hyperthermia was established, the tumor was given a single injection of 30 microliters containing 6% cyclopertadecanolide and 2×10^10 adenovirus vectors that contained the beta-galactosidase transgene, all in PBS. Following the injection, the hyperthermia was continued for an additional 45 minutes. That is, the elevated temperature was maintained for 45 minutes after injection. The tumor was retrieved 72 hours following the injection, cryosectioned, and stained with X-gal to visualize beta-galactosidase expression.
The voids were filled with light amber colored, gelatinous material, indicating break-down of the tissue cell membranes.

[5] = 6% permeabilizer and 2×10^10 adenovirus vectors, hyperthermia 41.0° C. kept for 45 minutes after injection

Structure (SMILES)	depth of doxorubicin penetration into the spheroids ([1]; 3.0 micrograms per milliliter doxorubicin, six hours, 37.0° C., absence of permeabilizer)	effect of hyperthermia treatment alone on penetration of doxorubicin ([1]; hyperthermia approximately 40° C., no permeabilizer)	transgene expression in cells that detached from the spheroids ([2]; 0.1% to 3% cyclopentadecanolide plus adenovirus vectors with beta-galactosidase reporter transgene)	cell detachment from the spheroid when hyperthermia was included ([2]; 0.1% to 3% cyclopentadecanolide plus hyperthermia)	highest concentration that can be made into a stable emulsion [3]	X-gal staining from beta-galactosidase expression in tumor sections [4, 5]	tumor section morphology (tissue destruction) [4, 5]	X-gal staining from beta-galactosidase expression in tumor sections ([4]; 12% cyclopentadecanolide and 2×10^10 adenovirus vectors, no hyperthermia)	spheroid morphology / intercellular space ([1]; 0.6% cyclopentadecanone, 37.0° C., six hours)	degree to which doxorubicin penetrated the spheroids ([1]; 3.0 micrograms per milliliter doxorubicin, six hours, culture medium containing 0.6% cyclopentadecanone, 37.0° C.)	permeabilizer activity with concurrent hyperthermia ([1]; as example 1 plus hyperthermia, approximately 40° C.)	doxorubicin penetration with permeabilizer and hyperthermia ([1]; as example 1 plus hyperthermia, approximately 40° C., doxorubicin fluorescence)	intercellular space with concurrent hyperthermia ([1]; as example 1 plus hyperthermia, approximately 40° C., intact and sectioned spheroids)
COc1cccc2c1C(=O)c1c(O)c3c(c(O)c1C2=O)C[C@@](O)(C(=O)CO)C[C@@H]3O[C@H]1C[C@H](N)[C@H](O)[C@H](C)O1 [doxorubicin, reference compound]	six	no effect											
O=C1CCCCCCCCCCCCCCO1 [cyclopentadecanolide]			exhibit beta-galactosidase activity	grossly exacerbated	approximately 25 % (weight/volume)	pervaded the remainder of the sections	large voids in the center of the sections	pervasive throughout the section					
O=C1CCCCCCCCCCCCCC1 [cyclopentadecanone]					approximately 25 % (weight/volume)				increase in intercellular space	essentially tripled	marked potentiation of permeabilizer activity	penetrated all recesses of the spheroids	greater increase in intercellular space
